Patent US20140349329A1, “DENSITY ANALYSIS OF ORGANISMS BY MAGNETIC LEVITATION” (President and Fellows of Harvard College, priority 2011, published 2014)

Tests used:
Format in all cases: in vivo
C. elegans [1] = test: Density of C. elegans by magnetic levitation (MagLev) after exposure to drug; details: worms treated with 6 mM aspirin (and Nile Red); medium 33% Percoll, 67% M9 buffer, 135 mM Mn•EDTA, 0.057 mM Ivermectin; T=23° C; N=10 worms; untreated 1.074±0.001
Experimental: To show the applicability of the present methodologies, two experiments using magnetic levitation (MagLev) to quantify the change in density in different organisms are described. In particular, experiments were performed on C. elegans and embryos of Danio rerio (i.e., zebrafish). In these embodiments, the paramagnetic salt was chelated Mn•EDTA, and the osmolality of the paramagnetic medium was approximately isotonic with the species under study (˜300 mOsm/kg).
In the experiments on C. elegans, the organism was exposed to aspirin, which results in an accumulation of lipids in the organism due to the sequestration of coenzyme A and the inhibition of fatty acid degradation. A density estimate of C. elegans exposed to aspirin and the density of control C. elegans that were not exposed to aspirin was determined via a Percoll gradient. […] Aspirin-treated C. elegans were centrifuged with a set of density marker beads in order to measure the density of different populations of C. elegans qualitatively and to establish the ranges of interest for quantitative density measurements using MagLev. […]
Using MagLev, the density of different populations of C. elegans was calculated with high precision. […] The magnetic levitation set up used to quantify the density of each worm involved placing the sample between two magnets. […]

C. elegans [2] = test: Density estimate of C. elegans by centrifugation in a Percoll gradient with density marker beads; details: qualitative
Experimental: In the experiments on C. elegans, the organism was exposed to aspirin, which results in an accumulation of lipids in the organism due to the sequestration of coenzyme A and the inhibition of fatty acid degradation. A density estimate of C. elegans exposed to aspirin and the density of control C. elegans that were not exposed to aspirin was determined via a Percoll gradient. The density of C. elegans changed upon exposure to aspirin with respect to an unexposed control group. Aspirin-treated C. elegans were centrifuged with a set of density marker beads in order to measure the density of different populations of C. elegans qualitatively and to establish the ranges of interest for quantitative density measurements using MagLev. A chelated form of manganese, ethylenediaminetetraacetic acid disodium manganese salt (Mn•EDTA), was used in the MagLev experiments as it is FDA approved for in vivo applications. The analysis of treated and untreated populations of C. elegans by MagLev employed concentrations of Mn•EDTA up to several hundred millimolar. C. elegans were motile within the paramagnetic solution and their swimming motion counteracted the balance of magnetic and gravitational forces within the MagLev device. Ivermectin was introduced into the paramagnetic solution to paralyze the organisms, this stabilized the organisms within the MagLev device.

[3] = tested on: embryos of Danio rerio (i.e., zebrafish); test: Development of zebrafish embryos levitated in paramagnetic medium
Experimental: To show the applicability of the present methodologies, two experiments using magnetic levitation ([…]) to quantify the change in density in different organisms are described. In particular, experiments were performed on C. elegans and embryos of Danio rerio (i.e., zebrafish). In these embodiments, the paramagnetic salt was chelated Mn•EDTA, and the osmolality of the paramagnetic medium was approximately isotonic with the species under study ( 300 mOsm/kg). The development of zebrafish was monitored over a period of 54 h in a solution of 100 mM Gd•DTPA and 150 mM Gd•DTPA with Percoll and a saline solution (FIG. 4). […] In these experiments, four zebrafish embryos (collected from one strain of fish) were placed into a paramagnetic medium containing Gd•DTPA, Percoll and saline buffer. For these experiments, polystyrene spheres were included as density controls. After 16 hours of monitoring development, the levitation medium was changed to one composed of a higher concentration of the gadolinium chelate.

| development of embryos in the paramagnetic solution ([3]; 100 mM and 150 mM Gd•DTPA with Percoll and saline solution, monitored over 54 h) | morphology of the embryos after increase in concentration of the paramagnetic salt ([3]; medium changed after 16 hours to a higher concentration of the gadolinium chelate) | Structure (SMILES) | density of worms (MagLev) (C. elegans [1]) [g/mL] | density of C. elegans upon exposure, with respect to unexposed control group (C. elegans [2]) |
| --- | --- | --- | --- | --- |
| – | – | CC(=O)Oc1ccccc1C(=O)O [aspirin] | 1.070 ± 0.002 | changed |
| not affected | did not affect the morphology | O=C([O-])CN(CCN(CC(=O)[O-])CC(=O)O)CCN(CC(=O)[O-])CC(=O)O.[Gd+3] [Gd•DTPA] | – | – |
